Among the data in US7566720B2, “2-pyridinyl-6,7,8,9-tetrahydropyrimido[1,2-a] pyrimidin-4-one and 7-pyridinyl-2,3-dihydroimidazo[1,2-a] pyrimidin-5(1H)one derivatives” (Sanofi-Aventis, priority 2000, dated 2009) are melting point values, retold here.

As a reminder, the melting point is the temperature, or range, at which the solid turns liquid.

Molecules are shown by their SMILES. Counter-ions that a name gives are not always drawn.

Compound `O=C(CCc1ccccc1)N1CCCn2c1nc(-c1ccncc1)cc2=O` [Compound No 25 of Table 1, 9-[3-phenylpropanoyl]-2-pyridin-4-yl-6,7,8,9-tetrahydro-4H-pyrimido[1,2-a]pyrimidin-4-one] came in with a melting point of 230 to 232 °C. Compound `CC(C(O)c1ccccc1)N1CCCn2c1nc(-c1ccncc1)cc2=O` (racemic) [Compound No 74 of Table 1, 9-[1-methyl-2-hydroxy-2-phenyl-ethyl]-2-pyridin-4-yl-6,7,8,9-tetrahydro-4H-pyrimido[1,2-a]pyrimidin-4-one] showed a melting point of 232 to 234 °C. In the case of `O=C(CCc1ccccc1)N1CCCn2c1nc(-c1ccncc1)cc2=O` (as salt: salt) [Compound No 25 of Table 1, 9-[3-phenylpropanoyl]-2-pyridin-4-yl-6,7,8,9-tetrahydro-4H-pyrimido[1,2-a]pyrimidin-4-one], the melting point was 158 to 160 °C. Regarding `CC(C(=O)c1ccccc1)N1CCCn2c1nc(-c1ccncc1)cc2=O` (racemic) (as salt: hydrochloride) [Compound No 73 of Table 1, 9-[1-methyl-2-oxo-2-phenyl-ethyl]-2-pyridin-4-yl-6,7,8,9-tetrahydro-4H-pyrimido[1,2-a]pyrimidin-4-one], the melting point was 194 to 196 °C.
